Data from publication PMC8625360 (Cells, 2021).
Peptide text beside a SMILES is read from it. * marks the point of attachment. 5FAM = O=C1OC2(c3ccc(O)cc3Oc3cc(O)ccc32)c2ccc(C(=O)*)cc21

How the values were obtained:
HepG2 WT cells = experiment: Colocalization of EGFP-ATP7B-WT with TGN, lysosome (LAMP1) and LC3B markers; format: cell-based, human; details: 200 µM BCS, 24 h
Protocol: For the detection of the effect of copper on autophagosome-lysosome fusion, 50,000 cells of each HepG2 WT and HepG2 ATP7B^−/− were grown on laminin-coated coverslips for 24 h, transduced with BacMam-GFP-RFP-LC3B overnight according to the manufacturer’s recommendations. The cells were then treated with CuSO4 at a concentration range from 100 µM to 800 µM for 24 h, fixed with 4% paraformaldehyde for 15 min and finally stained with 250 ng/mL DAPI (Thermo Fisher scientific, Molecular Probes, D1306) for 5 min. The coverslips were fixed on a glass slide using Mowiol 4–88 (Sigma Aldrich, 81381). The fluorescence cell imaging was acquired using a confocal Zeiss LSM 780 microscope with a 63 × 1.40 Oil DIC M27. […] Red and yellow puncta count per cell was done using the particle analysis in image J. For protein ATP7B trafficking analysis, 50,000 cells of HepG2 WT and HepG2 ATP7B^−/− were cultured in a 500 µL cell culture medium on a laminin-coated coverslip for 24 h, then transfected with EGFP-ATP7B. After 6 h post transfection, cells were transduced with BacMam-RFP-Golgi or the BacMam-RFP-Lysosome overnight, then treated with various concentrations of CuSO4 or 200 µM of bathocuproine disulfonate (BCS) for 24 h or EBSS for 2 h, respectively. To detect LC3B or endogenous ATP7B, the fixed cells were incubated with anti-LC3B or anti-ATP7B antibodies at 4 °C overnight followed by secondary antibody incubation, Alexa Fluor 568 goat anti-rabbit, at temperature for 1 h in the dark. Pearson’s correlation coefficient was analyzed per cell using the colocalization threshold of ImageJ Fiji.

LC3B [1] = biological target: T1, LC3B (Homo sapiens, UniProt Q9GZQ8); experiment: Fluorescence polarization binding of CF-labelled LIR peptides to purified LC3B; details: CF-labelled peptide 2.5 µM (25 µL) + LC3B 0.2–330 µM (25 µL), HEPES buffer 50 mM pH 7.2, 50 mM NaCl, 2 mM DTE, one site-specific binding fit, three independent replications, read-out: Kd (dissociation constant) for LC3B
T1 construct: His6 (N, cleaved yes); MBP (N, cleaved yes); made in house; host or cells: E. coli BL21-codonplus (DE3)-RIL
Protocol: Binding experiments were done in a black 384-microwell plate. […] Each CF-labelled peptide in a volume of 25 µL at a concentration of 2.5 µM was combined with 25 µL of LC3B at a concentration range from 0.2–330 µM. The fluorescent polarization was measured with the excitation and emission wavelengths of […], respectively. The obtained polarization data were corrected by subtraction of the peptide alone (blank). The dissociation constant (Kd) was quantified using a nonlinear curve fitting the site-specific binding on GraphPad Prism 5.0 for Windows (GraphPad Software, La Jolla, CA, USA). Experiments were performed in three independent replications.

LC3B [2] = biological target: T1, LC3B; experiment: Pull-down with resin-bound GST-LC3B as bait from transfected HEK293H cell lysate; format: binding; details: 500 µg HEK293H lysate, western blot, repeated two times
Protocol: GST tagged LC3B was used as a bait to trap the full-length ATP7B from a lysate obtained from ATP7B transfected human embryonic kidney 293 H cell line (HEK293H) cells. To this end, 100,000 cells of HEK293H were cultured in 1 mL of DMEM media (Thermo Fisher Scientific, 31966-047) plus 10% fetal bovine serum (FBS) (Fisher Scientific, 10309433) and 1% Penicillin-Streptomycin (P/S) (Thermo Fisher Scientific, 15140122). Once the cells reached 80% confluence, cells were transfected with pIRES-GFP carrying full-length ATP7B (NM_000053.4) or its W1452A/L1455A mutant using Lipofectamine LTX and plus reagent (Invitrogen, 15338100). […] Blots were imaged on an Infrared fluorescence imaging system using Li-Cor 9120 Odyssey (LI-COR Biosciences, Bad Homburg, Germany). Protein band intensity quantification was done using ImageJ (National Institutes of Health, Bethesda, MD, USA).

Molecule | Kd (LC3B [1]) [µM] | further results
Cc1cc(-c2ccc(S(=O)(=O)O)cc2)c2ccc3c(-c4ccc(S(=O)(=O)O)cc4)cc(C)nc3c2n1 [BCS, bathocuproine disulfonate] | – | fold elevation of ATP7B fraction in the TGN vs basal medium condition (HepG2 WT cells): about 12.6 fold; ATP7B fraction in the TGN (HepG2 WT cells; from mean Pearson's correlation coefficient, 30 cells): 32.8%
CSCC[C@H](NC(=O)c1ccc2c(c1)C(=O)OC21c2ccc(O)cc2Oc2cc(O)ccc21)C(=O)N[C@@H](CCCCN)C(=O)N[C@@H](CCCCN)C(=O)N[C@@H](CO)C(=O)N[C@@H](Cc1ccccc1)C(=O)N[C@@H](C)C(=O)N[C@@H](Cc1ccccc1)C(=O)N[C@@H](CC(=O)O)C(=O)N[C@@H](CC(N)=O)C(=O)N[C@H](C(=O)NCC(=O)N[C@@H](Cc1ccc(O)cc1)C(=O)N[C@@H](CCC(=O)O)C(=O)NCC(=O)NCC(=O)N[C@@H](CC(C)C)C(=O)N[C@@H](CC(=O)O)C(N)=O)C(C)C [LIR1] (5FAM-MKKSFAFDNVGYEGGLD-NH2) | > 250 | –
CC(C)[C@H](NC(=O)[C@H](Cc1ccc(O)cc1)NC(=O)[C@H](CO)NC(=O)[C@@H](NC(=O)[C@H](CCC(N)=O)NC(=O)[C@H](CC(=O)O)NC(=O)[C@H](Cc1c[nH]c2ccccc12)NC(=O)[C@@H]1CCCN1C(=O)[C@@H](NC(=O)[C@H](C)NC(=O)[C@H](CCCNC(=N)N)NC(=O)[C@@H]1CCCN1C(=O)[C@H](CO)NC(=O)[C@H](CC(=O)O)NC(=O)c1ccc2c(c1)C(=O)OC21c2ccc(O)cc2Oc2cc(O)ccc21)[C@@H](C)O)C(C)C)C(=O)N[C@@H](CO)C(=O)N[C@@H](CCC(N)=O)C(N)=O [LIR2] (5FAM-DSPRATPWDQVSYVSQ-NH2) | > 250 | –
CC(C)C[C@H](NC(=O)[C@H](C)NC(=O)[C@H](CC(C)C)NC(=O)[C@H](CO)NC(=O)[C@H](C)NC(=O)[C@H](CCCCN)NC(=O)[C@H](CC(=O)O)NC(=O)CNC(=O)[C@H](CC(=O)O)NC(=O)[C@H](CC(=O)O)NC(=O)[C@H](CC(=O)O)NC(=O)[C@H](C)NC(=O)c1ccc2c(c1)C(=O)OC21c2ccc(O)cc2Oc2cc(O)ccc21)C(=O)N[C@@H](CC(N)=O)C(=O)NCC(=O)N[C@@H](CCCNC(=N)N)C(=O)N[C@@H](CC(=O)O)C(N)=O [LIR3^W1452A,L1455A] (5FAM-ADDDGDKASLALNGRD-NH2) | > 250 | –
CC(C)C[C@H](NC(=O)[C@H](CO)NC(=O)[C@H](C)NC(=O)[C@H](CCCCN)NC(=O)[C@H](CC(=O)O)NC(=O)CNC(=O)[C@H](CC(=O)O)NC(=O)[C@H](CC(=O)O)NC(=O)[C@H](CC(=O)O)NC(=O)[C@H](C)NC(=O)c1ccc2c(c1)C(=O)OC21c2ccc(O)cc2Oc2cc(O)ccc21)C(=O)N[C@@H](CC(C)C)C(=O)N[C@@H](CC(C)C)C(=O)N[C@@H](CC(N)=O)C(=O)NCC(=O)N[C@@H](CCCNC(=N)N)C(=O)N[C@@H](CC(=O)O)C(N)=O [LIR3^W1452A] (5FAM-ADDDGDKASLLLNGRD-NH2) | > 250 | –
wild-type ATP7B: full-length recombinant copper-transporting ATPase ATP7B from transfected HEK293H cell lysate (protein) MPEQERQITAREGASRKILSKLSLPTRAWEPAMKKSFAFDNVGYEGGLDGLGPSSQVATSTVRILGMTCQSCVKSIEDRISNLKGIISMKVSLEQGSATVKYVPSVVCLQQVCHQIGDMGFEASIAEGKAASWPSRSLPAQEAVVKLRVEGMTCQSCVSSIEGKVRKLQGVVRVKVSLSNQEAVITYQPYLIQPEDLRDHVNDMGFEAAIKSKVAPLSLGPIDIERLQSTNPKRPLSSANQNFNNSETLGHQGSHVVTLQLRIDGMHCKSCVLNIEENIGQLLGVQSIQVSLENKTAQVKYDPSCTSPVALQRAIEALPPGNFKVSLPDGAEGSGTDHRSSSSHSPGSPPRNQVQGTCSTTLIAIAGMTCASCVHSIEGMISQLEGVQQISVSLAEGTATVLYNPSVISPEELRAAIEDMGFEASVVSESCSTNPLGNHSAGNSMVQTTDGTPTSVQEVAPHTGRLPANHAPDILAKSPQSTRAVAPQKCFLQIKGMTCASCVSNIERNLQKEAGVLSVLVALMAGKAEIKYDPEVIQPLEIAQFIQDLGFEAAVMEDYAGSDGNIELTITGMTCASCVHNIESKLTRTNGITYASVALATSKALVKFDPEIIGPRDIIKIIEEIGFHASLAQRNPNAHHLDHKMEIKQWKKSFLCSLVFGIPVMALMIYMLIPSNEPHQSMVLDHNIIPGLSILNLIFFILCTFVQLLGGWYFYVQAYKSLRHRSANMDVLIVLATSIAYVYSLVILVVAVAEKAERSPVTFFDTPPMLFVFIALGRWLEHLAKSKTSEALAKLMSLQATEATVVTLGEDNLIIREEQVPMELVQRGDIVKVVPGGKFPVDGKVLEGNTMADESLITGEAMPVTKKPGSTVIAGSINAHGSVLIKATHVGNDTTLAQIVKLVEEAQMSKAPIQQLADRFSGYFVPFIIIMSTLTLVVWIVIGFIDFGVVQRYFPNPNKHISQTEVIIRFAFQTSITVLCIACPCSLGLATPTAVMVGTGVAAQNGILIKGGKPLEMAHKIKTVMFDKTGTITHGVPRVMRVLLLGDVATLPLRKVLAVVGTAEASSEHPLGVAVTKYCKEELGTETLGYCTDFQAVPGCGIGCKVSNVEGILAHSERPLSAPASHLNEAGSLPAEKDAVPQTFSVLIGNREWLRRNGLTISSDVSDAMTDHEMKGQTAILVAIDGVLCGMIAIADAVKQEAALAVHTLQSMGVDVVLITGDNRKTARAIATQVGINKVFAEVLPSHKVAKVQELQNKGKKVAMVGDGVNDSPALAQADMGVAIGTGTDVAIEAADVVLIRNDLLDVVASIHLSKRTVRRIRINLVLALIYNLVGIPIAAGVFMPIGIVLQPWMGSAAMAASSVSVVLSSLQLKCYKKPDLERYEAQAHGHMKPLTASQVSVHIGMDDRWRDSPRATPWDQVSYVSQVSLSSLTSDKPSRHSAAADDDGDKWSLLLNGRDEEQYI | – | ATP7B in elution fraction of GST-LC3B pull-down (LC3B [2]): detected in the elution fraction
